Assay results as given in patent US9302999B2, “Substituted triazoles as herbicides” (E. I. DU PONT DE NEMOURS AND COMPANY, priority 2012, dated 2016).
Like-named read-outs stand apart in the source and are kept apart here.

Columns and labels:
Assay type in all cases: in vivo
[1] = test system: windgrass (Apera spica-venti); assay: Test C postemergence: windgrass
Source text: At the same time, plants selected from these crop and weed species and also barley (winter barley, Hordeum vulgare), canarygrass (Phalaris minor), chickweed (common chickweed, Stellaria media) windgrass (Apera spica-venti) and deadnettle (henbit deadnettle, Lamium amplexicaule) were planted in pots containing Redi-Earth® planting medium (Scotts Company, 14111 Scottslawn Road, Marysville, Ohio 43041) comprising spaghnum peat moss, vermiculite, wetting agent and starter nutrients and treated with postemergence applications of test chemicals formulated in the same manner. Plants ranged in height from 2 to 18 cm (1- to 4-leaf stage) for postemergence treatments.
(§1) Treated plants and controls were maintained in a greenhouse for 13 to 15 days, after which time all species were compared to controls and visually evaluated. Plant response ratings, summarized in Table C, are based on a scale of 0 to 100 where 0 is no effect and 100 is complete control. A dash (-) response means no test result.

[2] = test system: rice (Oryza sativa); assay: Test C flooded paddy test: rice; settings: Oryza sativa, scale 0 to 100 (0 no effect, 100 complete control), read-out: Plant response rating, Rice; for plant injury at 62 g/ha: 62 g ai/ha; for plant injury at 125 g/ha: 125 g ai/ha; for plant injury at 250 g/ha: 250 g ai/ha; for plant injury at 31 g/ha: 31 g ai/ha
How it was run: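 Plants at 2-leaf stage in pots flooded 3 cm above soil; compounds applied directly into the paddy water, depth maintained. Visual rating against controls after 13–15 days in greenhouse, scale 0 (no effect) to 100 (complete control).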

[3] = test system: canarygrass (Phalaris minor); assay: Test D pre-/postemergence: canarygrass
Source text: (§2) Seeds of plant species selected from bluegrass (annual bluegrass, Poa annua), blackgrass (Alopecurus myosuroides), canarygrass (Phalaris minor), chickweed (common chickweed, Stellaria media), galium (catchweed bedstraw, Galium aparine), bromegrass, downy (downy bromegrass, Bromus tectorum), field poppy (Papaver rhoeas), field violet (Viola arvensis), foxtail, green (green foxtail, Setaria viridis), deadnettle (henbit deadnettle, Lamium amplexicaule), ryegrass, Italian (Italian ryegrass, Lolium multiflorum), kochia (Kochia scoparia), lambsquarters (Chenopodium album), oilseed rape (Brassica napus), pigweed (Amaranthus retroflexus), Russian thistle (Salsola iberica), chamomile (scentless chamomile, Matricaria inodora), speedwell (bird's-eye speedwell, Veronica persica), barley, spring (spring barley, Hordeum vulgare), wheat, spring (spring wheat, Triticum aestivum), buckwheat, wild (wild buckwheat, Polygonum convolvulus), mustard, wild (wild mustard, Sinapis arvensis), oat, wild (wild oat, Avena fatua), radish, wild (wild radish, Raphanus raphanistrum), windgrass (Apera spica-venti), barley, winter (winter barley, Hordeum vulgare), and wheat, winter (winter wheat, Triticum aestivum) were planted into a silt loam soil and treated preemergence with test chemicals formulated in a non-phytotoxic solvent mixture which included a surfactant. At the same time, these same crop and weed species were planted in pots containing the planting medium comprising spaghnum peat moss, vermiculite, wetting agent and starter nutrients and treated with postemergence applications of the test chemicals formulated in the same manner. Plants ranged in height from 2 to 18 cm (1- to 4-leaf stage).
as §1, with “controlled growth environment” for “greenhouse”, “14” for “13”, “21 days” for “15 days,”, “D,” for “C,”

[4] = test system: chickweed (common chickweed, Stellaria media); assay: Test D pre-/postemergence: chickweed
How it was run: (§3)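 Visual control ratings (0–100) after 14–21 days, controlled environment. Preemergence on silt loam; postemergence on 2–18 cm plants.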

[5] = test system: galium (catchweed bedstraw, Galium aparine); assay: Test D pre-/postemergence: galium
Source text: as §2
as §1, with “controlled growth environment” for “greenhouse”, “14” for “13”, “21 days” for “15 days,”, “D,” for “C,”

[6] = test system: field poppy (Papaver rhoeas); assay: Test D pre-/postemergence: field poppy
Source text: as §2
as §1, with “controlled growth environment” for “greenhouse”, “14” for “13”, “21 days” for “15 days,”, “D,” for “C,”

[7] = test system: deadnettle (henbit deadnettle, Lamium amplexicaule); assay: Test D pre-/postemergence: deadnettle
How it was run: as §3

[8] = test system: mustard, wild (wild mustard, Sinapis arvensis); assay: Test D pre-/postemergence: mustard, wild
Source text: as §2
as §1, with “controlled growth environment” for “greenhouse”, “14” for “13”, “21 days” for “15 days,”, “D,” for “C,”

[9] = test system: ducksalad (Heteranthera limosa); assay: Test B flooded paddy: ducksalad; settings: Flood; 250 g ai/ha; applied to paddy water at 2-leaf stage; visually evaluated after 13 to 15 days
How it was run: (§4)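 Paddy-water application: seedlings at 2-leaf stage, flood depth 3 cm maintained for the test duration. Evaluation after 13–15 days in the greenhouse by eye relative to controls; 0–100 scale.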

[10] = test system: barnyardgrass (Echinochloa crus-galli); assay: Test B flooded paddy: barnyardgrass; settings: Flood; 250 g ai/ha; applied to paddy water at 2-leaf stage; visually evaluated after 13 to 15 days
How it was run: as §4

[11] = 31 g ai/ha, scale 0 to 100 (0 no effect, 100 complete control)
[12] = 62 g ai/ha, scale 0 to 100 (0 no effect, 100 complete control)
[13] = 125 g ai/ha, scale 0 to 100, 0 no effect, 100 complete control
[14] = Flood (flooded paddy test), visual rating after 13 to 15 days
[15] = Postemergence, 31 g ai/ha, scale 0 to 100 (0 no effect, 100 complete control)
[16] = Postemergence, 62 g ai/ha, scale 0 to 100 (0 no effect, 100 complete control)
[17] = Postemergence, 125 g ai/ha, scale 0 to 100, 0 no effect, 100 complete control
[18] = Postemergence, 250 g ai/ha, scale 0 to 100 (0 no effect, 100 complete control)
[19] = Postemergence, 16 g ai/ha, scale 0 to 100
[20] = Preemergence, 16 g ai/ha, scale 0 to 100 (0 no effect, 100 complete control)
[21] = Preemergence, 31 g ai/ha, scale 0 to 100 (0 no effect, 100 complete control)
[22] = Preemergence, 62 g ai/ha, scale 0 to 100
[23] = Preemergence, 125 g ai/ha, scale 0 to 100
[24] = Preemergence, 250 g ai/ha, scale 0 to 100

## Cc1nn(-c2ccc(F)cc2)nc1Cc1ccnc(C(F)(F)F)c1 [Compound 16, 4-[[2-(4-fluorophenyl)-5-methyl-2H-1,2,3-triazol-4-yl]methyl]-2-(trifluoromethyl)pyridine]
[1]; [11]
  Plant response rating, Windgrass: 45
[1]; [12]
  Plant response rating, Windgrass: 50
[1]; [13]
  Plant response rating, Windgrass: 50
[1]; 250 g ai/ha, scale 0 to 100
  Plant response rating, Windgrass: 50
[2]; [14]
  plant injury at 62 g/ha: 30%
  plant injury at 125 g/ha: 40%
  plant injury at 250 g/ha: 50%
[2]; Flood
  plant injury at 31 g/ha: 20%
[3]; [15]
  Plant response rating: Canarygrass: 30
[3]; [16]
  Plant response rating: Canarygrass: 35
[3]; [17]
  Plant response rating: Canarygrass: 40
[3]; [18]
  Plant response rating: Canarygrass: 80
[3]; [19]
  Plant response rating, Canarygrass: 20
[3]; [20]
  Plant response rating, Canarygrass: 20
[3]; [21]
  Plant response rating, Canarygrass: 40
[3]; [22]
  Plant response rating, Canarygrass: 50
[3]; [23]
  Plant response rating, Canarygrass: 90
[3]; [24]
  Plant response rating, Canarygrass: 100
[4]; [15]
  Plant response rating: Chickweed: 70
[4]; [16]
  Plant response rating: Chickweed: 90
[4]; [17]
  Plant response rating: Chickweed: 95
[4]; [18]
  Plant response rating: Chickweed: 95
[4]; [19]
  Plant response rating, Chickweed: 40
[5]; [15]
  Plant response rating: Galium: 40
[5]; [16]
  Plant response rating: Galium: 50
[5]; [17]
  Plant response rating: Galium: 60
[5]; [18]
  Plant response rating: Galium: 70
[5]; [19]
  Plant response rating, Galium: 20
[5]; [20]
  Plant response rating, Galium: 0
[5]; [21]
  Plant response rating, Galium: 0
[5]; [23]
  Plant response rating, Galium: 20
[5]; [24]
  Plant response rating, Galium: 20
[6]; [15]
  Plant response rating: Field Poppy: 100
[6]; [16]
  Plant response rating: Field Poppy: 100
[6]; [17]
  Plant response rating: Field Poppy: 100
[6]; [18]
  Plant response rating: Field Poppy: 100
[6]; [19]
  Plant response rating, Field Poppy: 0
[6]; [20]
  Plant response rating, Field Poppy: 100
[6]; [21]
  Plant response rating, Field Poppy: 100
[6]; [22]
  Plant response rating, Field Poppy: 100
[6]; [23]
  Plant response rating, Field Poppy: 100
[6]; [24]
  Plant response rating, Field Poppy: 100
[7]; [15]
  Plant response rating: Deadnettle: 25
[7]; [16]
  Plant response rating: Deadnettle: 45
[7]; [17]
  Plant response rating: Deadnettle: 50
[7]; [18]
  Plant response rating: Deadnettle: 90
[7]; [19]
  Plant response rating, Deadnettle: 10
[7]; [20]
  Plant response rating, Deadnettle: 0
[7]; [21]
  Plant response rating, Deadnettle: 40
[7]; [22]
  Plant response rating, Deadnettle: 60
[7]; [23]
  Plant response rating, Deadnettle: 100
[7]; [24]
  Plant response rating, Deadnettle: 100
[8]; [16]
  Plant response rating: Mustard, Wild: 90
[8]; [18]
  Plant response rating: Mustard, Wild: 100
[8]; [19]
  Plant response rating, Mustard, Wild: 10
[8]; [20]
  Plant response rating, Mustard, Wild: 0
[8]; [21]
  Plant response rating, Mustard, Wild: 0
[8]; [22]
  Plant response rating, Mustard, Wild: 100
[8]; [23]
  Plant response rating, Mustard, Wild: 100
[8]; [24]
  Plant response rating, Mustard, Wild: 100

## Cc1nn(-c2ccc(F)cc2)nc1Oc1ccnc(C(F)(F)F)c1 [Compound 129, 4-[[2-(4-fluorophenyl)-5-methyl-2H-1,2,3-triazol-4-yl]oxy]-2-(trifluoromethyl)pyridine]
[1]; [11]
  Plant response rating, Windgrass: 60
[1]; [12]
  Plant response rating, Windgrass: 80
[1]; [13]
  Plant response rating, Windgrass: 85
[1]; 250 g ai/ha, scale 0 to 100
  Plant response rating, Windgrass: 100
[2]; [14]
  plant injury at 125 g/ha: 40%
  plant injury at 250 g/ha: 50%
[2]; Flood
  plant injury at 31 g/ha: 20%
  plant injury at 62 g/ha: 30%
[3]; [15]
  Plant response rating: Canarygrass: 10
[3]; [16]
  Plant response rating: Canarygrass: 15
[3]; [17]
  Plant response rating: Canarygrass: 70
[3]; [18]
  Plant response rating: Canarygrass: 80
[3]; [19]
  Plant response rating, Canarygrass: 10
[3]; [20]
  Plant response rating, Canarygrass: 0
[3]; [21]
  Plant response rating, Canarygrass: 15
[3]; [22]
  Plant response rating, Canarygrass: 100
[3]; [23]
  Plant response rating, Canarygrass: 100
[3]; [24]
  Plant response rating, Canarygrass: 100
[4]; [15]
  Plant response rating: Chickweed: 90
[4]; [16]
  Plant response rating: Chickweed: 100
[4]; [17]
  Plant response rating: Chickweed: 100
[4]; [18]
  Plant response rating: Chickweed: 100
[4]; [19]
  Plant response rating, Chickweed: 75
[4]; [20]
  Plant response rating, Chickweed: 0
[4]; [21]
  Plant response rating, Chickweed: 100
[4]; [22]
  Plant response rating, Chickweed: 100
[4]; [23]
  Plant response rating, Chickweed: 100
[4]; [24]
  Plant response rating, Chickweed: 100
[5]; [15]
  Plant response rating: Galium: 50
[5]; [16]
  Plant response rating: Galium: 75
[5]; [17]
  Plant response rating: Galium: 85
[5]; [18]
  Plant response rating: Galium: 98
[5]; [19]
  Plant response rating, Galium: 40
[5]; [21]
  Plant response rating, Galium: 0
[5]; [22]
  Plant response rating, Galium: 100
[5]; [23]
  Plant response rating, Galium: 100
[5]; [24]
  Plant response rating, Galium: 100
[6]; [15]
  Plant response rating: Field Poppy: 100
[6]; [16]
  Plant response rating: Field Poppy: 100
[6]; [17]
  Plant response rating: Field Poppy: 100
[6]; [18]
  Plant response rating: Field Poppy: 85
[6]; [19]
  Plant response rating, Field Poppy: 100
[6]; [20]
  Plant response rating, Field Poppy: 0
[6]; [21]
  Plant response rating, Field Poppy: 75
[6]; [22]
  Plant response rating, Field Poppy: 70
[6]; [23]
  Plant response rating, Field Poppy: 100
[6]; [24]
  Plant response rating, Field Poppy: 100
[7]; [15]
  Plant response rating: Deadnettle: 75
[7]; [16]
  Plant response rating: Deadnettle: 80
[7]; [17]
  Plant response rating: Deadnettle: 98
[7]; [18]
  Plant response rating: Deadnettle: 100
[7]; [19]
  Plant response rating, Deadnettle: 60
[7]; [20]
  Plant response rating, Deadnettle: 0
[7]; [21]
  Plant response rating, Deadnettle: 10
[7]; [22]
  Plant response rating, Deadnettle: 100
[7]; [23]
  Plant response rating, Deadnettle: 100
[7]; [24]
  Plant response rating, Deadnettle: 100
[8]; [20]
  Plant response rating, Mustard, Wild: 0
[8]; [21]
  Plant response rating, Mustard, Wild: 5
[8]; [22]
  Plant response rating, Mustard, Wild: 40
[8]; [23]
  Plant response rating, Mustard, Wild: 80
[8]; [24]
  Plant response rating, Mustard, Wild: 100

## Fc1ccc(-n2nc(Cc3ccnc(C(F)(F)F)c3)c(OCC(F)(F)F)n2)cc1 [Compound 142]
[9]
  Plant response rating, Ducksalad (0 to 100 scale, 0 is no effect, 100 is complete control): 90
[10]
  Plant response rating, Barnyardgrass (0 to 100 scale, 0 is no effect, 100 is complete control): 70
[1]; [11]
  Plant response rating, Windgrass: 80
[1]; [12]
  Plant response rating, Windgrass: 80
[1]; [13]
  Plant response rating, Windgrass: 85
[1]; 250 g ai/ha, scale 0 to 100
  Plant response rating, Windgrass: 95
